From the supplement of paper PMC4862054
Where “and” joins values, the source holds several entries; their conditions need not be identical. Identical values can stand only once.

What was measured:
Conditions in all cases: incubation time: 72 h
CAL-148 = assay: normalised viability (% of control), CellTiter-Blue; higher = more viable cells (about 100 = DMSO control)
Protocol: (§1)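 DSRT, CellTiter-Blue viability, 72 h incubation. Signal is normalised to DMSO and benzethonium chloride controls. Value is the normalised response at dose 3.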

MDA-MB-231 [1] = assay: as above
Protocol: as §1

HCC1599 [2] = assay: as above
Protocol: as §1

SK-BR-3 [3] = assay: as above
Protocol: as §1

CAL-120 [4] = assay: as above
Protocol: as §1

MDA-MB-468 [5] = assay: as above
Protocol: as §1

MFM-223 [6] = assay: as above
Protocol: as §1

MDA-MB-453 [7] = assay: as above
Protocol: as §1

HDQ-P1 [8] = assay: as above
Protocol: as §1

HCC1143 [9] = assay: as above
Protocol: as §1

MDA-MB-436 = assay: as above
Protocol: as §1

CAL-85-1 [10] = assay: as above
Protocol: as §1

BT-474 [11] = assay: as above
Protocol: as §1

MDA-MB-231 [12] = assay: drug sensitivity score (DSS), CellTiter-Blue viability (DSS (AUC-based score)); higher = stronger viability inhibition; extreme values may be limits of the assay
Protocol: (§2)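 DSRT with the CellTiter-Blue (resazurin reduction) viability readout, fluorescence 560/590 nm, 72 h incubation. Plates were normalised to DMSO and benzethonium chloride controls. DSS is computed from the area under the fitted dose-response curve (5 or 9 concentrations).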

DU-4475 = assay: as above
Protocol: as §2

HCC1599 [13] = assay: as above
Protocol: as §2

HCC1937 = assay: as above
Protocol: as §2

Hs578T = assay: as above
Protocol: as §2

BT-549 = assay: as above
Protocol: as §2

SK-BR-3 [14] = assay: as above
Protocol: as §2

CAL-120 [15] = assay: as above
Protocol: as §2

MDA-MB-468 [16] = assay: as above
Protocol: as §2

MFM-223 [17] = assay: as above
Protocol: as §2

MDA-MB-453 [18] = assay: as above
Protocol: as §2

HDQ-P1 [19] = assay: as above
Protocol: as §2

HCC1143 [20] = assay: as above
Protocol: as §2

CAL-85-1 [21] = assay: as above
Protocol: as §2

BT-474 [22] = assay: as above
Protocol: as §2

Structure (SMILES) | normalised viability (CAL-148; 10 nM) | normalised viability (MDA-MB-231 [1]; 100 nM) | normalised viability (HCC1599 [2]; 100 nM) | normalised viability (SK-BR-3 [3]; 100 nM) | normalised viability (CAL-120 [4]; 100 nM) | drug sensitivity score (MDA-MB-231 [12]) | drug sensitivity score (DU-4475) | drug sensitivity score (HCC1599 [13]) | drug sensitivity score (HCC1937) | drug sensitivity score (Hs578T) | drug sensitivity score (BT-549) | drug sensitivity score (SK-BR-3 [14]) | drug sensitivity score (CAL-120 [15]) | drug sensitivity score (MDA-MB-468 [16]) | drug sensitivity score (MFM-223 [17]) | drug sensitivity score (MDA-MB-453 [18]) | drug sensitivity score (HDQ-P1 [19]) | drug sensitivity score (HCC1143 [20]) | drug sensitivity score (CAL-85-1 [21]) | drug sensitivity score (BT-474 [22]) | also measured
C[C@@H]1C[C@H]2[C@@H]3CCC4=CC(=O)C=C[C@]4(C)[C@@]3(F)[C@@H](O)C[C@]2(C)[C@@]1(O)C(=O)CO [Dexamethasone] | 97.7% | 121% | 117% | 70.3% | 68.5% | 0 | 0 | 0 | 0 | 0 | 0 | 0 | 0 | 0 | 0 | 7.98 | 0 | 0 | 0 | 0 | normalised viability (MDA-MB-468 [5]; 100 nM): 119%; normalised viability (MFM-223 [6]; 100 nM): 93.4%; normalised viability (MDA-MB-453 [7]; 10 nM): 93.3%; normalised viability (HDQ-P1 [8]; 10 nM): 113%; normalised viability (HCC1143 [9]; 100 nM): 83.4%; normalised viability (MDA-MB-436; 100 nM): 94.9%; normalised viability (CAL-85-1 [10]; 10 nM): 110%; normalised viability (BT-474 [11]; 100 nM): 115%
CC(C)C(=O)Nc1ccc([N+](=O)[O-])c(C(F)(F)F)c1 [Flutamide] | 99.3% | 129% | 86.8% | 93.3% | 101% | 0 | 0 | 0 | 0 | 0 | 0 | 0 | 0 | 0 | 0 | 0 | 0 | 0 | 0 | 0 | normalised viability (MDA-MB-468 [5]; 100 nM): 96.9%; normalised viability (MFM-223 [6]; 100 nM): 90%; normalised viability (MDA-MB-453 [7]; 10 nM): 98.8%; normalised viability (HDQ-P1 [8]; 10 nM): 113%; normalised viability (HCC1143 [9]; 100 nM): 85.3%; normalised viability (MDA-MB-436; 100 nM): 105%; normalised viability (CAL-85-1 [10]; 10 nM): 100%; normalised viability (BT-474 [11]; 100 nM): 115%
COc1cc2c(Oc3ccc(NC(=O)C4(C(=O)Nc5ccc(F)cc5)CC4)cc3F)ccnc2cc1OCCCN1CCOCC1 [Foretinib] | – | – | – | – | – | 0 | 1.75 | 0 | 0 | 0.649 | 0 | 0.269 | 1.14 | 0 | 9.7 | 0 | 4.98 | 0 | 0 | 0 | normalised viability (CAL-148; 1 nM): 108%; normalised viability (MDA-MB-231 [1]; 10 nM): 95.1%; normalised viability (HCC1599 [2]; 10 nM): 95.3%; normalised viability (SK-BR-3 [3]; 10 nM): 78.8%; normalised viability (CAL-120 [4]; 10 nM): 89%; normalised viability (MDA-MB-468 [5]; 10 nM): 134%; normalised viability (MFM-223 [6]; 10 nM): 80%; normalised viability (MDA-MB-453 [7]; 1 nM): 91.6%; normalised viability (HDQ-P1 [8]; 1 nM): 92.4%; normalised viability (HCC1143 [9]; 10 nM): 99.9%; normalised viability (MDA-MB-436; 10 nM): 91.8%; normalised viability (CAL-85-1 [10]; 1 nM): 100%; normalised viability (BT-474 [11]; 10 nM): 109%
NC(=O)NO [Hydroxyurea] | – | – | – | – | – | 0 | 0 | 0 | 2.94 | 0 | 0 | 0 | 0 | 0 | 0 | 0 | 0 | 0 | 0 | 0 | normalised viability (CAL-148; 100 nM): 96.8%; normalised viability (MDA-MB-231 [1]; 1000 nM): 98.2%; normalised viability (HCC1599 [2]; 1000 nM): 117%; normalised viability (SK-BR-3 [3]; 1000 nM): 101%; normalised viability (CAL-120 [4]; 1000 nM): 103%; normalised viability (MDA-MB-468 [5]; 1000 nM): 109%; normalised viability (MFM-223 [6]; 1000 nM): 96.9%; normalised viability (MDA-MB-453 [7]; 100 nM): 101%; normalised viability (HDQ-P1 [8]; 100 nM): 108%; normalised viability (HCC1143 [9]; 1000 nM): 106%; normalised viability (MDA-MB-436; 1000 nM): 106%; normalised viability (CAL-85-1 [10]; 100 nM): 100%; normalised viability (BT-474 [11]; 1000 nM): 115%
CO[C@H](C(=O)[C@@H](O)[C@@H](C)O)[C@@H]1Cc2cc3cc(O[C@H]4C[C@@H](O[C@@H]5C[C@@H](O)[C@H](O)[C@@H](C)O5)[C@H](O)[C@@H](C)O4)c(C)c(O)c3c(O)c2C(=O)[C@H]1O[C@H]1C[C@@H](O[C@@H]2C[C@@H](O)[C@@H](O[C@@H]3C[C@](C)(O)[C@H](O)[C@@H](C)O3)[C@@H](C)O2)[C@H](O)[C@@H](C)O1 [Plicamycin] | 82.9% and 99.5% | 34.4% and 28.9% | 63% and 52.6% | 30.8% and 21.9% | 45% and 34.8% | 26 and 26.4 | 28 and 28.2 | 18.9 and 20.2 | 21.1 and 22.3 | 28 and 31.7 | 27.1 and 27.9 | 25 and 27.1 | 22.5 and 23.6 | 29.9 and 30.3 | 18.2 and 19 | 22.7 and 24.3 | 17.6 and 22.2 | 22.2 and 25.5 | 22.8 and 23.8 | 16.8 and 17.6 | normalised viability (MDA-MB-468 [5]; 100 nM): 9.16% and 7.26%; normalised viability (MFM-223 [6]; 100 nM): 71.4% and 61.1%; normalised viability (MDA-MB-453 [7]; 10 nM): 111% and 91.1%; normalised viability (HCC1143 [9]; 100 nM): 46% and 30.6%; normalised viability (MDA-MB-436; 100 nM): 30.2% and 23.4%; normalised viability (CAL-85-1 [10]; 10 nM): 96.7% and 94.2%; normalised viability (BT-474 [11]; 100 nM): 73.2% and 72.3%
